These results are taken from PMC5691054, “An unexpected protein interaction promotes drug resistance in leukemia” (Nature Communications, 2017).

“Also recorded” adds a separate entry of the source. Where two headings read alike, the source gives them in different places.

The test system of data set [1] is murine hematopoietic progenitor cells (HPC). Kind of data set: Hematopoietic progenitor cell serial replating in methylcellulose.
Protocol: In these experiments, littermates were used as controls. Bone marrow from 8- to 12-week-old female virgin C57/BL6 mice were harvested. Progenitors were enriched by incubating with lineage-PE antibodies (CD4, CD8, Mac1, Gr1, NK1.1, B220, and Ter119) and separated using AutoMACS Pro (Miltenyi). Hematopoetic progenitor cells were cultured in the presence of recombinant murine SCF (rmSCF), IL3 (rmIL3), and IL6 (rmIL6) (Peprotech; all 50 ng/ml) for 48 h before transduction on RetroNectin (Takara) coated plates. Retroviral supernatant containing media was produced by transient transfection of HEK293T cells with MSCV based retroviral plasmids encoding either MYCN-ires-YFP or MPP1-ires-CFP as previously described[35]. Forty-eight hours post transduction, cells were harvested, sorted for either YFP or CFP expression, and plated on methylcellulose containing IL3, IL6, SCF, and EPO (Stem Cell Technologies). Colonies were counted after 7 days growth at 37 °C, harvested, and replated.
The target in data set [2] is T1, ABCC4-PDZ motif and MPP1 interaction (Homo sapiens, UniProt O15439+Q00013).
T1 sequence (Q00013 1-466): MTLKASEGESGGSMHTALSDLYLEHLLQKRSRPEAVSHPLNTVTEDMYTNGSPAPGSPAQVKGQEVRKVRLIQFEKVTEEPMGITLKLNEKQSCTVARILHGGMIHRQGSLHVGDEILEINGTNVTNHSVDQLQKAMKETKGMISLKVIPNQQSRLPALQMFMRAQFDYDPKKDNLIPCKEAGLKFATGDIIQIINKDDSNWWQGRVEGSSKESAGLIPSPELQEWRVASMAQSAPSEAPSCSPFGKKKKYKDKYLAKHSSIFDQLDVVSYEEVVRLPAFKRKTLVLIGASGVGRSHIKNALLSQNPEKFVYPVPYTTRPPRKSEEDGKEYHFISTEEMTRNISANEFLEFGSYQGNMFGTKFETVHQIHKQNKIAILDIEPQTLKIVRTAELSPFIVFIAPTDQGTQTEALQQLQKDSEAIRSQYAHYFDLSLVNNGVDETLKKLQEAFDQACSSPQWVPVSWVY
T1 sequence (O15439 1301-1325): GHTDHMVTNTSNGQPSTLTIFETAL
The data set is described as follows: biochemical. The following applies: for IC50: 10 concentrations 3.5 nM to 70 μM.

Data set [3] has as its system ABCC4 at the plasma membrane. Kind of data set: Surface biotinylation of ABCC4. In kind it is cell-based. The following applies: Antimycin A, Fig. 6f, in words. The procedure: MO7e, Meg01, or transfected HEK293 cells were treated with trypsin, washed in PBS (pH 8) and incubated with 0.8 mM EZ-Link Sulfo-NHS-SS-Biotin (Pierce) solution for 30 min at room temperature with gentle agitation. Following incubation, the biotin molecules were quenched with 25 mM tris (pH 8) solution containing 0.1 M glycine before cell lysis using MPER (Thermo Scientific) containing a protease inhibitor cocktail (Roche). A volume of 20 µl of the lysate was removed for the total lysate control and the remaining lysate was incubated with avidin-agarose beads (Pierce) for 18 h on a rotatory shaker at 4 °C. The agarose beads attached to cell surface proteins were then separated from the lysate containing cytosolic proteins by centrifugation and the three samples (input, supernatant and pellet) were analyzed by immunoblotting.

Data set [4] relates to mitochondrial function of MO7e and ABCC4 KO MO7e cells. The data set is described as follows: Mitochondrial function (relative ATP, TMRE, MitoTracker Green). In kind it is cell-based, Human. The following applies: 10 nM. The procedure:
WT and ABCC4 KO MO7e cells were treated with DMSO or 10 nM Antimycin A before incubation with TMRE or MitoTracker Green (Life Technologies) for 15 min. After incubation, cells were analyzed with BD Biosciences flow cytometer and mean fluorescence intensity was calculated. Relative ATP amounts were determined by the CellTiter Glo Assay.

In data set [5] the test system is mitochondrial complex III. Details: method as in PMID 6257713. The following applies: in words; cited from earlier work.
Protocol: Among the 11,297 chemicals tested, 219 of them (144 unique molecules) had >30% inhibition and were selected for further dose-response analysis using 10 concentrations ranging from 3.5 nM to 70 μM.
The subject of data set [6] is ABCC4 plasma membrane localization in HEK293 cells expressing MPP1 and GFP-ABCC4. The data set is described as follows: ABCC4 plasma membrane localization (confocal microscopy). It is filed as cell-based, Human. The settings on record: in words; confocal microscopy. How it is done: Peptides containing or lacking the ABCC4-PDZ motif were fused with the cell penetrating HIV-TAT peptide. These peptides were tested for their effect on ABCC4 plasma membrane localization. HEK293 cells were transfected with MPP1 and GFP-ABCC4 and the ER protein, calreticulin. The plasma membrane was counter-stained with wheat-germ-agglutinin (WGA) labeled with Alexa647 after treatment with either ABCC4-PDZ or ABCC4ΔC peptide.
HEK293 cells were seeded on chambered coverglass slides (LAB-TEK) 48 h before transfection with plasmid DNA (250 ng) encoding pAc-GFP-ABCC4 or ABCC4ΔC and pCal plasmid encoding the ER resident protein calreticulin conjugated to RFP (Origene). Transfection was performed using Lipofectamine 2000 as per the manufacturer’s instructions. Immediately prior to visualizing cells, cells were counterstained with the plasma membrane marker wheat-germ agglutinin (WGA) conjugated to Alexa-647 (Invitrogen). All confocal microscopy images were acquired on a 3i Marianas system configured with an Yokagowa CSU-X spinning disk confocal microscope utilizing a ×63 Zeiss objective, using the 488 (GFP), 561 (RFP), and 660 (far red) laser lines.

For the molecule `CCCCCC[C@H]1C(=O)O[C@H](C)[C@H](NC(=O)c2cccc(NC=O)c2O)C(=O)O[C@@H](C)[C@@H]1OC(=O)CC(C)C` [Antimycin A], in data set [1] (HPC transduced with MPP1, Antimycin A 10 nM, triplicate), the “effect on MPP1-driven methylcellulose replating” value is given as “blocked replating of MPP1 overexpressing HSC; also recorded: attenuated”. Moreover, the “effect on colony formation of normal hematopoietic progenitors” value in data set [1] (normal hematopoietic progenitors, Antimycin A 10 nM (peer review file)) is given as “did not effect; also recorded: does not reduce the”. Also, the IC50 was about 3 nM in data set [2] (500 nM B-ABCC4, 5 nM His-S-MPP1, 0.7% DMSO, read-out: IC50 for complex disruption (TR-FRET)); 3.9 nM in data set [2] (figure value, 500 nM B-ABCC4, 5 nM His-S-MPP1, triplicate, read-out: IC50 for disruption of MPP1 and ABCC4 interaction (TR-FRET)). Besides, the “TR-FRET dose response / disruption of interaction” value in data set [2] (in words) is reported as “the most potent”. Moreover, in data set [3], the “surface / plasma membrane ABCC4” value was “reduces ABCC4 at the plasma membrane”. For the same molecule, the “relative ATP” value in data set [4] (CellTiter Glo, triplicate) is reported as “Equal relative”. The “effect on mitochondrial function” value in data set [4] (in words) was “does not selectively affect the mitochondrial; also recorded: minimal effect on mitochondria; also recorded: not exclusively disruptive to mitochondrial function in cells lacking or containing ABCC4”. Besides, the “mitochondrial complex III inhibition” value in data set [5] is given as “mitochondrial complex III inhibitor at micromolar concentration”. For the same molecule, in data set [6], the “effect on ABCC4 plasma membrane localization” value was “ABCC4 relocalized from the plasma membrane to the cytosol; also recorded: causes ABCC4 to relocalize from the plasma membrane”.

Usually IC50 stands for the concentration at which inhibition is half-maximal.
